SMILES strings stand for the structures.

This is an account of results in patent publication US10543194B2, “Organic compounds” (INTRA-CELLULAR THERAPIES, INC., priority 2014, dated 2020).

In series [1] the test system is cGMP levels in the striatum. Nature of the series: Measurements of cGMP in mouse brain in vivo. Conditions: mice, 3 mg/kg i.p., 15, 30 or 60 min, compared to Bay 60-7550 (3 mg/kg). On the procedure:
Striatum are dissected from the mouse brains and assayed for levels of cGMP. Trichloroacetic acid (TCA) is added to tissue samples for a final concentration of 5% TCA and the tissue is immediately sonicated in solution and stored on ice. The sonicated sample is centrifuged at 15,000×g for 20 min at 4° C. to remove the precipitated protein. To extract the TCA, the sample is washed three times in water saturated ether. The samples are then dried under vacuum (Speedvac, Savant SPD111V) at room temperature and re-suspended in 100 μL EIA buffer. […] Each sample is tested in duplicate in precoated assay plates alongside the 8-point cGMP standard dilutions. In addition, blank, maximum binding (B0) and non-specific binding wells are included. To all wells containing 50 μL sample or standard, equal volumes of AChE-linked cGMP and cGMP antibody are added. The plate is incubated at 4° C. for 18 hours. The wells are then washed 5 times with wash buffer. Detection reagent containing acetylthiocholine and […] is added and the plate is incubated at room temperature until the OD of the B0 wells is at least 0.5 as recorded by the SoftMax 4.8 software (Molecular Devices, Sunnyvale, Calif.). Each data point is converted to % B/B0 (100*[sample or standard OD−average non-specific binding)/(average B0−average non-specific binding)]). […]

Series [2] is described as follows: Pharmacokinetic study in mice (plasma and brain availability). The class given is in vivo. Conditions: 10 mg/kg PO, compared to Bay 60-7550. The method, then:
Mice are given a single oral dose of the compound of Example 22 (10 mg/kg, PO) and plasma and brain availability are measured (0.25-4 h) using HPLC and LC-MS using methods analogous to those described in Zhao et al., J. Chromatogr. B. Analyt. Technol. Biomed. Life Sci. (2005) 819(1):73-80 and Appels, N. M., et al., Rapid Commun. Mass Spec. 2005. 19(15): p. 2187-92.

Turning to `COc1ccc2[nH]c(=O)c3c(C)nn(-c4cc(OCC5CCC5)ccc4Cl)c3c2n1` [Example 22, 1-(2-Chloro-5-(cyclobutylmethoxy)phenyl)-8-methoxy-3-methyl-1H-pyrazolo[4,3-c][1,5]naphthyridin-4(5H)-one], in series [1], the “cGMP levels in the striatum” value is “increases cGMP levels in the striatum”. The brain access entry in series [2] is reported as “good brain access”.
